# How the values were obtained:
# Test in all cases: Kinase selectivity panel
# Assay type in all cases: biochemical
# Rse(h) = target: T1, Rse(h) (Homo sapiens, UniProt Q06418); details: read-out: Inhibition(%) @ 1 µM RK-019
# T1 construct: purchased Eurofins Discovery Services (KinaseProfiler)
# In short: (§1)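 Selectivity profiling used one concentration (1 µM) in an ATP-site competition binding assay over 422 recombinant human kinases; data given as inhibition ratio.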
# [1] = target: T2, PI3 Kinase (p110a/p65a)(h) (Homo sapiens, UniProt P42336); details: read-out: Inhibition(%) @ 1 µM RK-019
# T2 construct: purchased Eurofins Discovery Services (KinaseProfiler)
# In short: as §1
# MST4(h) = target: T3, MST4(h) (Homo sapiens, UniProt Q9P289); details: read-out: Inhibition(%) @ 1 µM RK-019
# T3 construct: purchased Eurofins Discovery Services (KinaseProfiler)
# In short: as §1
# Snk(h) = target: T4, Snk(h) (Homo sapiens, UniProt Q9NYY3); details: read-out: Inhibition(%) @ 1 µM RK-019
# T4 construct: purchased Eurofins Discovery Services (KinaseProfiler)
# In short: as §1
# CDK13/cyclinK(h) = target: T5, CDK13/cyclinK(h) (Homo sapiens, UniProt Q14004); details: read-out: Inhibition(%) @ 1 µM RK-019
# T5 construct: purchased Eurofins Discovery Services (KinaseProfiler)
# In short: as §1
# Ros(h) = target: T6, Ros(h) (Homo sapiens, UniProt P08922); details: read-out: Inhibition(%) @ 1 µM RK-019
# T6 construct: purchased Eurofins Discovery Services (KinaseProfiler)
# In short: as §1
# BMPR2(h) = target: T7, BMPR2(h) (Homo sapiens, UniProt Q13873); details: read-out: Inhibition(%) @ 1 µM RK-019
# T7 construct: purchased Eurofins Discovery Services (KinaseProfiler)
# In short: as §1
# NEK11(h) = target: T8, NEK11(h) (Homo sapiens, UniProt Q8NG66); details: read-out: Inhibition(%) @ 1 µM RK-019
# T8 construct: purchased Eurofins Discovery Services (KinaseProfiler)
# In short: as §1
# ALK6(h) = target: T9, ALK6(h) (Homo sapiens, UniProt O00238); details: read-out: Inhibition(%) @ 1 µM RK-019
# T9 construct: purchased Eurofins Discovery Services (KinaseProfiler)
# In short: as §1
# Syk(h) = target: T10, Syk(h) (Homo sapiens, UniProt P43405); details: read-out: Inhibition(%) @ 1 µM RK-019
# T10 construct: purchased Eurofins Discovery Services (KinaseProfiler)
# In short: as §1
# LRRK2(h) = target: T11, LRRK2(h) (Homo sapiens, UniProt Q5S007); details: read-out: Inhibition(%) @ 1 µM RK-019
# T11 construct: purchased Eurofins Discovery Services (KinaseProfiler)
# In short: as §1
# EGFR(L858R)(h) = target: T12, EGFR(L858R)(h) (Homo sapiens, UniProt P00533, L858R); details: read-out: Inhibition(%) @ 1 µM RK-019
# T12 construct: purchased Eurofins Discovery Services (KinaseProfiler)
# In short: as §1
# Txk(h) = target: T13, Txk(h) (Homo sapiens, UniProt P42681); details: read-out: Inhibition(%) @ 1 µM RK-019
# T13 construct: purchased Eurofins Discovery Services (KinaseProfiler)
# In short: as §1
# IR(h), activated = target: T14, IR(h), activated (Homo sapiens, UniProt P06213); details: read-out: Inhibition(%) @ 1 µM RK-019
# T14 construct: purchased Eurofins Discovery Services (KinaseProfiler)
# In short: as §1
# STK32C(h) = target: T15, STK32C(h) (Homo sapiens, UniProt Q86UX6); details: read-out: Inhibition(%) @ 1 µM RK-019
# T15 construct: purchased Eurofins Discovery Services (KinaseProfiler)
# In short: as §1
# Fyn(h) = target: T16, Fyn(h) (Homo sapiens, UniProt P06241); details: read-out: Inhibition(%) @ 1 µM RK-019
# T16 construct: purchased Eurofins Discovery Services (KinaseProfiler)
# In short: as §1
# GRK6(h) = target: T17, GRK6(h) (Homo sapiens, UniProt P43250); details: read-out: Inhibition(%) @ 1 µM RK-019
# T17 construct: purchased Eurofins Discovery Services (KinaseProfiler)
# In short: as §1
# FGFR3(h) = target: T18, FGFR3(h) (Homo sapiens, UniProt P22607)
# T18 construct: purchased Eurofins Discovery Services (KinaseProfiler)
# In short: as §1
# Blk(m) = target: T19, Blk(m) (Mus musculus, UniProt P16277); details: read-out: Inhibition(%) @ 1 µM RK-019
# T19 construct: purchased Eurofins Discovery Services (KinaseProfiler)
# Tec(h) activated = target: T20, Tec(h) activated (Homo sapiens, UniProt P42680); details: read-out: Inhibition(%) @ 1 µM RK-019
# T20 construct: purchased Eurofins Discovery Services (KinaseProfiler)
# In short: as §1
# TTBK2(h) = target: T21, TTBK2(h) (Homo sapiens, UniProt Q6IQ55); details: read-out: Inhibition(%) @ 1 µM RK-019
# T21 construct: purchased Eurofins Discovery Services (KinaseProfiler)
# In short: as §1
# TAF1L(h) = target: T22, TAF1L(h) (Homo sapiens, UniProt Q8IZX4); details: read-out: Inhibition(%) @ 1 µM RK-019
# T22 construct: purchased Eurofins Discovery Services (KinaseProfiler)
# In short: as §1
# DYRK1B(h) = target: T23, DYRK1B(h) (Homo sapiens, UniProt Q9Y463); details: read-out: Inhibition(%) @ 1 µM RK-019
# T23 construct: purchased Eurofins Discovery Services (KinaseProfiler)
# In short: as §1
# TTK(h) = target: T24, TTK(h) (Homo sapiens, UniProt P33981); details: read-out: Inhibition(%) @ 1 µM RK-019
# T24 construct: purchased Eurofins Discovery Services (KinaseProfiler)
# In short: as §1
# PASK(h) = target: T25, PASK(h) (Homo sapiens, UniProt Q96RG2); details: read-out: Inhibition(%) @ 1 µM RK-019
# T25 construct: purchased Eurofins Discovery Services (KinaseProfiler)
# In short: as §1
# c-RAF(h) = target: T26, c-RAF(h) (Homo sapiens, UniProt P04049); details: read-out: Inhibition(%) @ 1 µM RK-019
# T26 construct: purchased Eurofins Discovery Services (KinaseProfiler)
# In short: as §1
# GRK2(h) = target: T27, GRK2(h) (Homo sapiens, UniProt P25098); details: read-out: Inhibition(%) @ 1 µM RK-019
# T27 construct: purchased Eurofins Discovery Services (KinaseProfiler)
# In short: as §1
# Met(M1268T)(h) = target: T28, Met(M1268T)(h) (Homo sapiens, UniProt P08581, M1250T); details: read-out: Inhibition(%) @ 1 µM RK-019
# T28 construct: purchased Eurofins Discovery Services (KinaseProfiler)
# In short: as §1
# Fgr(h) = target: T29, Fgr(h) (Homo sapiens, UniProt P09769); details: read-out: Inhibition(%) @ 1 µM RK-019
# T29 construct: purchased Eurofins Discovery Services (KinaseProfiler)
# In short: as §1
# [2] = target: T30, PI3 Kinase (p110d/p85a)(h) (Homo sapiens, UniProt O00329); details: read-out: Inhibition(%) @ 1 µM RK-019
# T30 construct: purchased Eurofins Discovery Services (KinaseProfiler)
# In short: as §1
# SIK2(h) = target: T31, SIK2(h) (Homo sapiens, UniProt Q9H0K1); details: read-out: Inhibition(%) @ 1 µM RK-019
# T31 construct: purchased Eurofins Discovery Services (KinaseProfiler)
# In short: as §1
# GSK3α(h) = target: T32, GSK3α(h) (Homo sapiens, UniProt P49840); details: read-out: Inhibition(%) @ 1 µM RK-019
# T32 construct: purchased Eurofins Discovery Services (KinaseProfiler)
# In short: as §1
# MARK4(h) = target: T33, MARK4(h) (Homo sapiens, UniProt Q96L34); details: read-out: Inhibition(%) @ 1 µM RK-019
# T33 construct: purchased Eurofins Discovery Services (KinaseProfiler)
# In short: as §1
# EGFR(L861Q)(h) = target: T34, EGFR(L861Q)(h) (Homo sapiens, UniProt P00533, L861Q); details: read-out: Inhibition(%) @ 1 µM RK-019
# T34 construct: purchased Eurofins Discovery Services (KinaseProfiler)
# In short: as §1
# PAK2(h) = target: T35, PAK2(h) (Homo sapiens, UniProt Q13177); details: read-out: Inhibition(%) @ 1 µM RK-019
# T35 construct: purchased Eurofins Discovery Services (KinaseProfiler)
# In short: as §1
# [3] = target: T36, PI3 Kinase (p110a(E545K)/p85a)(h) (Homo sapiens, UniProt P42336, E545K); details: read-out: Inhibition(%) @ 1 µM RK-019
# T36 construct: purchased Eurofins Discovery Services (KinaseProfiler)
# In short: as §1
# T18 sequence (P22607 23-806): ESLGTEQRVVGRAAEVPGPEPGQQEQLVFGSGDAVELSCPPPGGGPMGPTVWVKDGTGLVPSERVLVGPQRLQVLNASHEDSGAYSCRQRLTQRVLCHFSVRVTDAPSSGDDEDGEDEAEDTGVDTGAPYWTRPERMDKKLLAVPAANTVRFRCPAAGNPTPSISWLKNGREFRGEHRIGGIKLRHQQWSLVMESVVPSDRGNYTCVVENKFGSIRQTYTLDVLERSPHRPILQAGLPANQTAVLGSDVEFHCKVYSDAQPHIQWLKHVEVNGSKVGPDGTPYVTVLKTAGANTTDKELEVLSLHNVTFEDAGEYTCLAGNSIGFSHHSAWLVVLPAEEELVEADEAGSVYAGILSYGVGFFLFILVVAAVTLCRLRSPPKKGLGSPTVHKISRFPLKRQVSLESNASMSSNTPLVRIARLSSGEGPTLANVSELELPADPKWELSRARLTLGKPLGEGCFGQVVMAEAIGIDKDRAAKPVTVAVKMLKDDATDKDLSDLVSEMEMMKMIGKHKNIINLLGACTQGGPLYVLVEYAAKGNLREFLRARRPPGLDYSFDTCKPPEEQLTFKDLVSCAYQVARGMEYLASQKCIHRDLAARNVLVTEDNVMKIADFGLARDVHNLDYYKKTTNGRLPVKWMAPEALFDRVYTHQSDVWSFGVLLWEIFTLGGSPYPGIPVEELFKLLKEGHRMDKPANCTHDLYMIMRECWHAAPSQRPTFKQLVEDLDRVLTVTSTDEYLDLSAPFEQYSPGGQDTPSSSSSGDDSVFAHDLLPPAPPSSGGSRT
# T14 sequence (P06213 28-1382): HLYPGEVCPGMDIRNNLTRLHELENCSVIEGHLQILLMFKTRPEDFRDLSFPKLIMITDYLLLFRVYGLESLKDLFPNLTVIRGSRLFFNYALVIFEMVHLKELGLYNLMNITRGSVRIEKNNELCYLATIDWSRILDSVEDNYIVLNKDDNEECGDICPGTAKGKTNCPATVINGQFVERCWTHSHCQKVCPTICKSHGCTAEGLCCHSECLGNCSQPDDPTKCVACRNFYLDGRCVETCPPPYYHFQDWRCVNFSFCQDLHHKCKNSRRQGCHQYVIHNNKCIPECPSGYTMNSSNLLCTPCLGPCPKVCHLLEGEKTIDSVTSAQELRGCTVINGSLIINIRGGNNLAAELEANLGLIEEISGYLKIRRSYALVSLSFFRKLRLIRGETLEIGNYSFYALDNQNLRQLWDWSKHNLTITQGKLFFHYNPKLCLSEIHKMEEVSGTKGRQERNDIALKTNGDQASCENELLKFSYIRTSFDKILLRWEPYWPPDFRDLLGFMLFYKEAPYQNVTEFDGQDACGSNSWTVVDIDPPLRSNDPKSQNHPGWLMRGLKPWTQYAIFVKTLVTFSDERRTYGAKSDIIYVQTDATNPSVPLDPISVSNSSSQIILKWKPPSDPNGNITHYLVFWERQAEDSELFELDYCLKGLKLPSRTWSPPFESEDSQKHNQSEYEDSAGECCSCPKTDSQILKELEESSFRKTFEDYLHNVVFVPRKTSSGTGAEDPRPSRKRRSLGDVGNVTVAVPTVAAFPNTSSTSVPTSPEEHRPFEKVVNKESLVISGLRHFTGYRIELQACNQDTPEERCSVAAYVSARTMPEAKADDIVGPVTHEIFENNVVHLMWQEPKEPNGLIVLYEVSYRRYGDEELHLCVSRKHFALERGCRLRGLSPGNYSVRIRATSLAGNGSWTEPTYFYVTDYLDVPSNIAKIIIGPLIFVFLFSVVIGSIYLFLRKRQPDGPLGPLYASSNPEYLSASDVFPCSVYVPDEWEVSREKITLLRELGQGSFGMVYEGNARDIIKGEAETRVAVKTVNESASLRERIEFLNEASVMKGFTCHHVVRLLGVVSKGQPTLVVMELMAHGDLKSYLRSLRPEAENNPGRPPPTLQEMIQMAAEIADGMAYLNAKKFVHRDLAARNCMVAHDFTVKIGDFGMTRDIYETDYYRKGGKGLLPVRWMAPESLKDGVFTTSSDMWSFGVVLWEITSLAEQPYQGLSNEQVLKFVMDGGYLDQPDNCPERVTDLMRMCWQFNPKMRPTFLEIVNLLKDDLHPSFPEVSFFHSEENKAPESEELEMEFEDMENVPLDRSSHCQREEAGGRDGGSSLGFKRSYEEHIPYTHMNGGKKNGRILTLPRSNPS
# T29 sequence (P09769 whole entry): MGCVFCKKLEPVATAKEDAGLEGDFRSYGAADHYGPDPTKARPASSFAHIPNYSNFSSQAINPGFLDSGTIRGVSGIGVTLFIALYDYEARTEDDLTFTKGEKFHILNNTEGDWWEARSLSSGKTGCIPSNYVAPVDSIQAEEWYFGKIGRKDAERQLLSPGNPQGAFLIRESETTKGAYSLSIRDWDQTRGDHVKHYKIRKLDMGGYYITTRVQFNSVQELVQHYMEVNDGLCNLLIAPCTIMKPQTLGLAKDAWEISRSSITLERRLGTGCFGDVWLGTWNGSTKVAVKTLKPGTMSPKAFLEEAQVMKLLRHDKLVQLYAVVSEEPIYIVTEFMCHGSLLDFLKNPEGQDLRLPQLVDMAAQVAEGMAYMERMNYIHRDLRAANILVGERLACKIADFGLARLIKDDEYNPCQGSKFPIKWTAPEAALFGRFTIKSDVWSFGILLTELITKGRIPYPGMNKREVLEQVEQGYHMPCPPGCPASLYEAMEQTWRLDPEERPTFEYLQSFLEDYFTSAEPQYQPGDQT
# T7 sequence (Q13873 27-1038): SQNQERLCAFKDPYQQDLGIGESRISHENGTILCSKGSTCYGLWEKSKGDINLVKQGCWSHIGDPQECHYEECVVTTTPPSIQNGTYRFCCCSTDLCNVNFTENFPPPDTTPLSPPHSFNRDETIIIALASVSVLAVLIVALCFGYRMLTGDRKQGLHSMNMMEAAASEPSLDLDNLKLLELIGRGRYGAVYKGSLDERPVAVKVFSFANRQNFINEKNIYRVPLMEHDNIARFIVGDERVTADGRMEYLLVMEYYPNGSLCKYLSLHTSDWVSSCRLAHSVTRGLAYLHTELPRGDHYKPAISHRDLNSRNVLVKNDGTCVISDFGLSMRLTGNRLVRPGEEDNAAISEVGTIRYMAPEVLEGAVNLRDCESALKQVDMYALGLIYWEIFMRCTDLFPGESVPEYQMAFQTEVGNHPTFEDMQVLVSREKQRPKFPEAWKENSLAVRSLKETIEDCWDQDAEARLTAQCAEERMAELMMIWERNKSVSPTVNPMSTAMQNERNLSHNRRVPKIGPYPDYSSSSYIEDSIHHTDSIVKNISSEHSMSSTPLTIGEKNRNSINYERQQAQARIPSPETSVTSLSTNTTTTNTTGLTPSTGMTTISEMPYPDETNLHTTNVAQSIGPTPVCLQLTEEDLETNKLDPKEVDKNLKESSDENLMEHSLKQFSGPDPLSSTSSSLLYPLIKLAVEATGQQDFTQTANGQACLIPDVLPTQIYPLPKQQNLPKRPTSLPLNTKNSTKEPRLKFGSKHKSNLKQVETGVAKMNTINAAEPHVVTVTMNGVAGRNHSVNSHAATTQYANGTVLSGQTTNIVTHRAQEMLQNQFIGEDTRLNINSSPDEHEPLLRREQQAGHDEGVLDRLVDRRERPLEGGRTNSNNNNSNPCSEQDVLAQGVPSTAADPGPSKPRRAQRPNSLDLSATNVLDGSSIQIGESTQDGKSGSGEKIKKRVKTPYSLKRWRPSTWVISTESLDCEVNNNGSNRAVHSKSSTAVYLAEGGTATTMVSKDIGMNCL
# T35 sequence (Q13177 whole entry): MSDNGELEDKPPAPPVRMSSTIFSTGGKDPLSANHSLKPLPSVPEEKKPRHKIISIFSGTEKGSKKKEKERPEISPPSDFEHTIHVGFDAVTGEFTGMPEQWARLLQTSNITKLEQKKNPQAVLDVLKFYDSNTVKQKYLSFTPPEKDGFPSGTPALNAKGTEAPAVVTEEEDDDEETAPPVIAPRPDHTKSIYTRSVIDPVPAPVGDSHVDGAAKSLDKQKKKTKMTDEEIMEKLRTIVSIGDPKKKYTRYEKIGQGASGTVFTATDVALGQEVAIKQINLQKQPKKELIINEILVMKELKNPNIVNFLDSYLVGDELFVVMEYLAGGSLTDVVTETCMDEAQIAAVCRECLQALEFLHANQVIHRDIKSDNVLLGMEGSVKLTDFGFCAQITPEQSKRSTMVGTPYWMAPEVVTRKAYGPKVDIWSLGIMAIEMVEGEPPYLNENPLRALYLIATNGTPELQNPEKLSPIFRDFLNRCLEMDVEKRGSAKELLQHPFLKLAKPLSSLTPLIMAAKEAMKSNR
# T19 sequence (P16277 2-499 limits assumed): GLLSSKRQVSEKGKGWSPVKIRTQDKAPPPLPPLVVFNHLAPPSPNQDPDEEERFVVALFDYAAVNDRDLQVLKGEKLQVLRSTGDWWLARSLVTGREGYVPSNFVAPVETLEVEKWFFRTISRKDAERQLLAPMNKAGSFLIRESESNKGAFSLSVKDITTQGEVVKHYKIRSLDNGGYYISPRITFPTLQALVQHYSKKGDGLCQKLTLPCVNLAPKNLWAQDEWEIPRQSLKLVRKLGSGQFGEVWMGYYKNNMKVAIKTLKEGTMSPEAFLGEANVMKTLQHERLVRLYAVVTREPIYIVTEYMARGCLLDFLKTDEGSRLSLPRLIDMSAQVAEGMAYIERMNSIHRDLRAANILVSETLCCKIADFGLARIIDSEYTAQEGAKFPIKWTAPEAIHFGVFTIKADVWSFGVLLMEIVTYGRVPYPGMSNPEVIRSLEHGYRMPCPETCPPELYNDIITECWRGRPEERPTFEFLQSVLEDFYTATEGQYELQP
compound,measurement,setting,value
"COc1cc(OC)cc(N(CCN[C@H](C)CO)c2ccc3ncc(-c4cnn(C)c4)c(=O)n3c2)c1 [RK-019, (R)-7-((3,5-dimethoxyphenyl) (2-((1-hydroxypropan-2-yl)amino)ethyl)amino)-3-(1-methyl-1H-pyrazol-4-yl)-4H-pyrido [1,2-a]pyrimidin-4-one]",activity at 1 µM,Rse(h),104%
same,activity at 1 µM,[1],94%
same,activity at 1 µM,MST4(h),90%
same,activity at 1 µM,Snk(h),109%
same,activity at 1 µM,CDK13/cyclinK(h),109%
same,activity at 1 µM,Ros(h),101%
same,activity at 1 µM,BMPR2(h),116%
same,activity at 1 µM,NEK11(h),118%
same,activity at 1 µM,ALK6(h),107%
same,activity at 1 µM,Syk(h),116%
same,activity at 1 µM,LRRK2(h),80%
same,activity at 1 µM,EGFR(L858R)(h),114%
same,activity at 1 µM,Txk(h),106%
same,activity at 1 µM,"IR(h), activated",95%
same,activity at 1 µM,STK32C(h),72%
same,activity at 1 µM,Fyn(h),62%
same,activity at 1 µM,GRK6(h),114%
same,activity at 1 µM,"FGFR3(h); FGFR3(h), read-out: Inhibition(%) @ 1 µM RK-019",-3%
same,inhibition at 1 µM,"FGFR3(h); FGFR3, 1 µM, read-out: inhibition (hit in panel)",> 90%
same,activity at 1 µM,Blk(m),53%
same,activity at 1 µM,Tec(h) activated,96%
same,activity at 1 µM,TTBK2(h),82%
same,activity at 1 µM,TAF1L(h),100%
same,activity at 1 µM,DYRK1B(h),97%
same,activity at 1 µM,TTK(h),98%
same,activity at 1 µM,PASK(h),96%
same,activity at 1 µM,c-RAF(h),94%
same,activity at 1 µM,GRK2(h),103%
same,activity at 1 µM,Met(M1268T)(h),71%
same,activity at 1 µM,Fgr(h),54%
same,activity at 1 µM,[2],93%
same,activity at 1 µM,SIK2(h),99%
same,activity at 1 µM,GSK3α(h),85%
same,activity at 1 µM,MARK4(h),106%
same,activity at 1 µM,EGFR(L861Q)(h),103%
same,activity at 1 µM,PAK2(h),98%
same,activity at 1 µM,[3],100%

# Reference: publication PMC9532703, “A novel small molecule RK-019 inhibits FGFR2-amplification gastric cancer cell proliferation and induces apoptosis in vitro and in vivo” (Frontiers in Pharmacology, 2022)
